Patent publication US7186743B2, “Substituted pyrazolyl compounds for the treatment of inflammation” (Pharmacia Corporation, priority 2001, dated 2007)
Where a name gives a salt, the structure may show the parent alone. Read-outs that look alike come from different tables or passages of the source.

Biological target: T1, IKK2 (Homo sapiens, UniProt O14920)
T1 construct: made in house; host or cells: insect cells (baculovirus, pFastBac; SF9)
T1 sequence (O14920 1-756): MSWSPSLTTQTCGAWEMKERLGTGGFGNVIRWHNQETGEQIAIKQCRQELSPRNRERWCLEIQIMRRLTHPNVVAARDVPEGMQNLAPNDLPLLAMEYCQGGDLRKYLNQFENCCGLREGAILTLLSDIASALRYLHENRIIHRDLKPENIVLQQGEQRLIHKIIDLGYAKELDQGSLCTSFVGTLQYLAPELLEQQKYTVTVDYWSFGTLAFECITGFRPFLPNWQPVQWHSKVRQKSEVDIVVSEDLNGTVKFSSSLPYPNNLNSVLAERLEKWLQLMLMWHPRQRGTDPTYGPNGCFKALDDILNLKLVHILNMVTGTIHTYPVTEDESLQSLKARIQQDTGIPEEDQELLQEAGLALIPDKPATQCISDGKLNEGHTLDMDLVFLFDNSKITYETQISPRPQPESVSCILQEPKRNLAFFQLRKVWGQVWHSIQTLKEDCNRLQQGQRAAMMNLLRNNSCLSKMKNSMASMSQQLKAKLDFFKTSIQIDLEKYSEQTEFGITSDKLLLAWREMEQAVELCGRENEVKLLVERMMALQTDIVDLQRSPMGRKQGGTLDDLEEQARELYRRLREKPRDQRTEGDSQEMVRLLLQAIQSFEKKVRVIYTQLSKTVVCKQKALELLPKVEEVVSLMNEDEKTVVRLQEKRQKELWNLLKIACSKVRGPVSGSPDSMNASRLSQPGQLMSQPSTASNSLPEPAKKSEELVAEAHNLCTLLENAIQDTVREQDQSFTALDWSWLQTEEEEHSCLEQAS
Test: IKKβ Resin Enzyme Assay (IKK2 resin)
Assay type: biochemical
Text: cDNAs of human IKK1 and IKK2 were amplified by reverse transcriptase-polymerase chain reaction from human placental RNA (Clonetech). hIKK1 was subcloned into pFastBac HTa (Life Technologies) and expressed as N-terminal His6-tagged fusion protein. The hIKK2 cDNA was amplified using a reverse oligonucleotide primer which incorporated the peptide sequence for a FLAG-epitope tag at the C-terminus of the IKK2 coding region ([…]). The hIKK2:FLAG cDNA was subcloned into the baculovirus vector pFastBac. The rhIKK2 ([…]) mutant was constructed in the same vector used for wild type rhIKK2 using a QuikChange™ mutagenesis kit (Stratagene). Viral stocks of each construct were used to infect insect cells grown in 40 L suspension culture. […] Cell lysates were stored at −80° C. until purification of the recombinant proteins was undertaken as described below.
A 10-liter culture of baculovirus-expressing IKK2 tagged with FLAG peptide was centrifuged and the cell pellet (MOI=0.1 and I=72 hrs) was re-suspended in buffer A. These cells were microfluidized, and centrifuged at 100,000×g for 45 min. Supernatant was passed over a G-25 column equilibrated with Buffer A. Protein peak was collected and incubated with anti-FLAG affinity resin on a rotator overnight in buffer B. The resin was washed in batch with 10–15 bed volumes of buffer C. Washed resin was poured into a column and rhIKK2 homodimer was eluted using 5 bed volumes of buffer B containing FLAG peptide. 5 mM DTT, 0.1% NP-40 and BSA (concentrated to 0.1% in final amount) was added to the eluted enzyme before concentrating in using an Amicon membrane with a molecular weight cut-off of 30 kDa. Enzyme was aliquoted and stored at −80° C.
IKKβ kinase activity was measured using a biotinylated IκBα peptide ([…]32-Gly-Leu-Asp-Ser36-Met-Lys-Asp-Glu-Glu) (American Peptide Co.). […] ATP (Amersham) (about 1×10^5 cpm), 1 μM ATP (Sigma), 1 mM DTT (Sigma), 2 mM MgCl2 (Sigma), 2 mM MnCl2 (Sigma), 10 mM NaF (Sigma), 25 mM Hepes (Sigma) buffer, pH 7.6 and 20 μl enzyme solution and 10 ul inhibitor in a final volume of 50 μl. After incubation at 25° C. for 30 min, 150 μl resin (Dowex anion-exchange resin AG1X8 200–400 mesh) in 900 mM formate, pH 3.0 was added to each well to stop the reaction. Resin was allowed to settle for one hour and 50 ul of supernatant was removed to a Micolite-2 flat bottom plate (Dynex). 150 μl of scintillation fluid (Microscint 40) (Packard) was added to each well. Incorporation of [γ-^33P] ATP was measured using a Top-Count NXT (Packard).

[1] = Table for Examples 381-385 (headed TABLE 14), read-out: IKK2 Resin IC50
[2] = Table 2, read-out: IKK Resin IC50
[3] = Table 6, read-out: IKK2 Resin IC 50
[4] = Table 4, read-out: IKK2 Resin IC50
[5] = Table 23, read-out: IKK2 Resin IC50

NC(=O)c1nn(-c2ccc(N)nc2)c2c1CCc1ccc(NC(=O)c3ccncc3Cl)cc1-2 [Example 381, 1-(6-aminopyridin-3-yl)-8-[(3-chloroisonicotinoyl)amino]-4,5-dihydro-1H-benzo[g]indazole-3-carboxamide]
IC50 [1]: ≤ 1000 nM

CS(=O)(=O)c1ccc(-n2nc(C(N)=O)c3c2-c2cc(NC(=O)c4ccc(Cl)c(N)c4)ccc2CC3)cc1 [Example 113, 8-[(3-amino-4-chlorobenzoyl)amino]-1-[4-(methylsulfonyl)phenyl]-4,5-dihydro-1H-benzo[g]indazole-3-carboxamide]
IC50 [2]: ≤ 1000 nM

NC(=O)c1nn(-c2ccc(F)cc2)c2c1CCc1ccc(NC(=O)c3ccc(C(F)(F)F)nc3Cl)cc1-2 [Example 234, 8-({[2-chloro-6-(trifluoromethyl)pyridin-3-yl]carbonyl}amino)-1-(4-fluorophenyl)-4,5-dihydro-1H-benzo[g]indazole-3-carboxamide]
IC50 [3]: ≤ 1000 nM

CS(=O)(=O)c1ccc(-n2nc(C(N)=O)c3c2-c2cc(NC(=O)c4cc(Cl)cnc4Cl)ccc2CC3)cc1 [Example 123, 8-{[(2,5-dichloropyridin-3-yl)carbonyl]amino}-1-[4-(methylsulfonyl)phenyl]-4,5-dihydro-1H-benzo[g]indazole-3-carboxamide]
IC50 [2]: ≤ 1000 nM

CS(=O)(=O)Nc1ccc(-n2nc(C(N)=O)c3c2-c2cc(NC(=O)c4ccccc4Cl)ccc2CC3)cc1 [Example 372, 8-[(2-chlorobenzoyl)amino]-1-{4-[(methylsulfonyl)amino]phenyl}-4,5-dihydro-1H-benzo[g]indazole-3-carboxamide]
IC50 (Table 15, read-out: IKK2 Resin IC50): ≤ 1000 nM

Cc1ccccc1C(=O)Nc1ccc2c(c1)-c1c(c(C(N)=O)nn1-c1ccc(S(C)(=O)=O)cc1)CC2 [Example 94, 8-[(2-methylbenzoyl)amino]-1-[4-(methylsulfonyl)phenyl]-4,5-dihydro-1H-benzo[g]indazole-3-carboxamide]
IC50 [2]: ≤ 1000 nM

COc1cc(Cl)c(C(=O)Nc2ccc3c(c2)-c2c(c(C(N)=O)nn2-c2ccc(F)cc2)CC3)cc1OC [Example 239, 8-[(2-chloro-4,5-dimethoxybenzoyl)amino]-1-(4-fluorophenyl)-4,5-dihydro-1H-benzo[g]indazole-3-carboxamide]
IC50 [3]: ≤ 1000 nM

NC(=O)c1nn(-c2ccncc2)c2c1CCc1ccc(NC(=O)c3ccccc3Cl)cc1-2 [Example 338, 8-[(2-chlorobenzoyl)amino]-1-pyridin-4-yl-4,5-dihydro-1H-benzo[g]mdazole-3-carboxamide]
IC50 (Table 14, read-out: IKK2 Resin IC50): ≤ 1000 nM

NC(=O)c1nn(-c2ccc3c(c2)OCO3)c2c1CCc1ccc(NC(=O)c3ccncc3Cl)cc1-2 [Example 170, 1-(1,3-benzodioxol-5-yl)-8-[(3-chloroisonicotinoyl)amino]-4,5-dihydro-1H-benzo[g]indazole-3-carboxamide]
IC50 [4]: ≤ 1000 nM

NC(=O)c1nn(-c2ccc3c(c2)OCO3)c2c1CCc1ccc(NC(=O)c3ccc(C(F)(F)F)nc3Cl)cc1-2 [Example 181, 1-(1,3-benzodioxol-5-yl)-8-({[2-chloro-6-(trifluoromethyl)pyridin-3-yl]carbonyl}amino)-4,5-dihydro-1H-benzo[g]indazole-3-carboxamide]
IC50 [4]: ≤ 1000 nM

CN(C)S(=O)(=O)c1ccc(-n2nc(C(N)=O)c3c2-c2cc(NC(=O)c4ccccc4Cl)ccc2CC3)cc1 [Example 50, 8-[(2-chlorobenzoyl)amino]-1-{4-[(dimethylamino)sulfonyl]phenyl}-4,5-dihydro-1H-benzo[g]indazole-3-carboxamide]
IC50 (Table 1, read-out: IKK2-resin): ≤ 1000 nM

COc1ccc(C(=O)Nc2ccc3c(c2)-c2c(c(C(N)=O)nn2-c2ccc(F)cc2)CC3)c(Cl)c1 [Example 233, 8-[(2-chloro-4-methoxybenzoyl)amino]-1-(4-fluorophenyl)-4,5-dihydro-1H-benzo[g]indazole-3-carboxamide]
IC50 [3]: ≤ 1000 nM

CS(=O)(=O)c1ccc(-n2nc(C(N)=O)c3c2-c2cc(NC(=O)c4cc(SC#N)ccc4[N+](=O)[O-])ccc2CC3)cc1 [Example 148, 3-[({3-(aminocarbonyl)-1-[4-(methylsulfonyl)phenyl]-4,5-dihydro-1H-benzo[g]indazol-8-yl}amino)carbonyl]-4-nitrophenylthiocyanate]
IC50 (Table 3, read-out: IKK Resin IC50): ≤ 1000 nM

NC(=O)c1nn(-c2ccc(F)cc2)c2c1CCc1ccc(NC(=O)c3cccc(Cl)c3Cl)cc1-2 [Example 238, 8-[(2,3-dichlorobenzoyl)amino]-1-(4-fluorophenyl)-4,5-dihydro-1Hbenzo[g]indazole-3-carboxamide]
IC50 [3]: ≤ 1000 nM

CS(=O)(=O)c1ccc(-n2nc(C(N)=O)c3c2-c2cc(NC(=O)c4cc(N)ccc4Cl)ccc2CC3)cc1 [Example 112, 8-[(5-amino-2-chlorobenzoyl)amino]-1-[4-(methylsulfonyl)phenyl]-4,5-dihydro-1H-benzo[g]indazole-3-carboxamidehydrochloride]
IC50 [2]: ≤ 1000 nM

CC(C)NCC(=O)Nc1ccc2c(c1)-c1c(c(C(N)=O)nn1-c1ccc3c(c1)OCO3)CC2 [Example 444, 1-(1,3-benzodioxol-5-yl)-8-[(N-isopropylglycyl)amino]-4,5-dihydro-1H-benzo[g]indazole-3-carboxamide]
IC50 [5]: ≤ 1000 nM

NC(=O)c1nn(-c2ccc(F)cc2)c2c1CCc1ccc(NC(=O)CNC3CCC3)cc1-2 [Example 452, 8-[(N-cyclobutylglycyl)amino]-1-(4-fluorophenyl)-4,5-dihydro-1H-benzo[g]indazole-3-carboxamide]
IC50 [5]: ≤ 1000 nM

CN(C)S(=O)(=O)c1ccc(-n2nc(C(N)=O)c3c2-c2cc(NS(C)(=O)=O)ccc2CC3)cc1 [Example 426, 1-{4-[(dimethylamino)sulfonyl]phenyl}-8-[(methylsulfonyl)amino]-4,5-dihydro-1H-benzo[g]indazole-3-carboxamide]
IC50 (Table 21, read-out: IKK2 Resin IC50): ≤ 1000 nM

Cc1ncccc1C(=O)Nc1ccc2c(c1)-c1c(c(C(N)=O)nn1-c1ccc(S(C)(=O)=O)cc1)CC2 [Example 100]
IC50 [2]: ≤ 1000 nM

CS(=O)(=O)c1ccc(-n2nc(C(N)=O)c3c2-c2cc(NC(=O)c4ccc(N=[N+]=[N-])cc4)ccc2CC3)cc1 [Example 122, 8-[(4-azidobenzoyl)amino]-1-[4-(methylsulfonyl)phenyl]-4,5-dihydro-1H-benzo[g]indazole-3-carboxamide]
IC50 [2]: ≤ 1000 nM

NC(=O)c1nn(-c2ccc(/C=C/CCO)cc2)c2c1CCc1ccc(NC(=O)c3ccccc3Cl)cc1-2 [Example 298, 8-[(2-chlorobenzoyl)amino]-1-{4-[(1E)-4-hydroxybut-1-enyl]phenyl}-4,5-dihydro-1H-benzo[g]indazole-3-carboxamide]
IC50 (Table 11, read-out: IKK2 Resin IC50): ≤ 1000 nM

NC(=O)c1nn(-c2ccsc2)c2c1CCc1ccc(NC(=O)c3ccncc3Cl)cc1-2 [Example 383, 8-[(3-chloroisonicotinoyl)amino]-1-thien-3-yl-4,5-dihydro-1H-benzo[g]indazole-3-carboxamide]
IC50 [1]: ≤ 1000 nM
